Tested on: MV-4-11 cells
Experiment: Gene expression microarray analysis (Affymetrix PrimeView) and GSEA
Assay type: cell-based, human
Design: RFU PODN (11730768_x_at) / Fold change /veh PODN (11730768_x_at) / RFU LINC00158 (11744669_a_at) / Fold change /veh LINC00158 (11744669_a_at) / RFU DUSP10 (11751237_a_at) / Fold change /veh DUSP10 (11751237_a_at) / RFU ID3 (11757404_x_at) / Fold change /veh ID3 (11757404_x_at) / RFU PLEKHG5 (11737974_s_at) / Fold change /veh PLEKHG5 (11737974_s_at) / RFU LRRC4B (11730491_at) / Fold change /veh LRRC4B (11730491_at) / RFU GIMAP4 (11747438_a_at) / Fold change /veh GIMAP4 (11747438_a_at) / RFU KRT8 (11758183_x_at) / Fold change /veh KRT8 (11758183_x_at) / RFU CNN1 (11734310_a_at) / Fold change /veh CNN1 (11734310_a_at) / RFU VPS37D (11726825_at) / Fold change /veh VPS37D (11726825_at) / RFU C10orf10 (11716522_x_at) / Fold change /veh C10orf10 (11716522_x_at) / RFU KIR2DL2 /// KIR2DL4 /// KIR2DL5A /// KIR2DL5B /// KIR2DS1 /// KIR2DS2 /// KIR2DS3 /// KIR2DS4 /// KIR3DL3 /// KIR3DL3 /// KIR3DS1 (11738374_at) / Fold change /veh KIR2DL2 /// KIR2DL4 /// KIR2DL5A /// KIR2DL5B /// KIR2DS1 /// KIR2DS2 /// KIR2DS3 /// KIR2DS4 /// KIR3DL3 /// KIR3DL3 /// KIR3DS1 (11738374_at) / RFU C1QL1 (11718748_at) / Fold change /veh C1QL1 (11718748_at) / RFU TMPRSS4 (11747572_a_at) / Fold change /veh TMPRSS4 (11747572_a_at) / RFU HAMP (11756126_x_at) / Fold change /veh HAMP (11756126_x_at) / RFU RNFT2 (11725882_a_at) / Fold change /veh RNFT2 (11725882_a_at) / RFU NR4A2 (11747474_a_at) / Fold change /veh NR4A2 (11747474_a_at) / RFU ABCC12 (11746883_a_at) / Fold change /veh ABCC12 (11746883_a_at) / RFU TMEM136 (11760407_x_at) / Fold change /veh TMEM136 (11760407_x_at) / RFU CLDN22 /// WWC2 (11732394_at) / Fold change /veh CLDN22 /// WWC2 (11732394_at) / RFU HLA-DPB1 (11760878_x_at) / Fold change /veh HLA-DPB1 (11760878_x_at) / RFU SPINT1 (11716480_a_at) / Fold change /veh SPINT1 (11716480_a_at) / RFU GAP43 (11754022_s_at) / Fold change /veh GAP43 (11754022_s_at) / RFU A4GNT (11735810_at) / Fold change /veh A4GNT (11735810_at) / RFU PRB3 (11715151_x_at) / Fold change /veh PRB3 (11715151_x_at) / RFU TUBB4B (11761932_at) / Fold change /veh TUBB4B (11761932_at) / RFU CAPN14 (11732068_a_at) / Fold change /veh CAPN14 (11732068_a_at) / RFU TMCC2 (11721928_a_at) / Fold change /veh TMCC2 (11721928_a_at) / RFU IRGQ (11745062_a_at) / Fold change /veh IRGQ (11745062_a_at) / RFU FAM174B (11720279_a_at) / Fold change /veh FAM174B (11720279_a_at) / RFU TMPRSS4 (11748680_a_at) / Fold change /veh TMPRSS4 (11748680_a_at) / RFU FAM212B (11763350_a_at) / Fold change /veh FAM212B (11763350_a_at) / RFU PLEKHG5 (11743358_a_at) / Fold change /veh PLEKHG5 (11743358_a_at) / RFU ZSCAN30 (11745921_a_at) / Fold change /veh ZSCAN30 (11745921_a_at) / RFU CMKLR1 (11741424_a_at) / Fold change /veh CMKLR1 (11741424_a_at) / RFU LOC101060620 /// MAPK8IP1 (11723275_at) / Fold change /veh LOC101060620 /// MAPK8IP1 (11723275_at) / RFU SPTSSB (11747773_x_at) / Fold change /veh SPTSSB (11747773_x_at) / RFU PRSS12 (11739890_at) / Fold change /veh PRSS12 (11739890_at) / RFU BIN1 (11741810_x_at) / Fold change /veh BIN1 (11741810_x_at) / RFU WNT11 (11732464_a_at) / Fold change /veh WNT11 (11732464_a_at) / RFU C10orf10 (11716521_a_at) / Fold change /veh C10orf10 (11716521_a_at) / RFU C5orf56 (11738089_at) / Fold change /veh C5orf56 (11738089_at) / RFU CYB561 (11721691_x_at) / Fold change /veh CYB561 (11721691_x_at) / RFU ANKRD19P (11752326_a_at) / Fold change /veh ANKRD19P (11752326_a_at) / RFU OR2T12 /// OR2T33 /// OR2T8 (11738714_s_at) / Fold change /veh OR2T12 /// OR2T33 /// OR2T8 (11738714_s_at) / RFU VCAN (11748164_a_at) / Fold change /veh VCAN (11748164_a_at) / RFU JSRP1 (11732532_at) / Fold change /veh JSRP1 (11732532_at) / RFU KRTAP10-11 (11738290_x_at) / Fold change /veh KRTAP10-11 (11738290_x_at) / RFU MYO3A (11730013_a_at) / Fold change /veh MYO3A (11730013_a_at) / RFU EBF3 (11725865_a_at) / Fold change /veh EBF3 (11725865_a_at) / RFU CAMK2N1 (11719241_x_at) / Fold change /veh CAMK2N1 (11719241_x_at) / RFU C5orf56 (11738088_a_at) / Fold change /veh C5orf56 (11738088_a_at) / RFU OLFML3 (11715873_a_at) / Fold change /veh OLFML3 (11715873_a_at) / RFU LOC100653217 /// NTM (11731650_a_at) / Fold change /veh LOC100653217 /// NTM (11731650_a_at) / RFU MAPK11 (11762145_a_at) / Fold change /veh MAPK11 (11762145_a_at) / RFU FIZ1 (11724087_x_at) / Fold change /veh FIZ1 (11724087_x_at) / RFU OASL (11726364_x_at) / Fold change /veh OASL (11726364_x_at) / RFU SOX15 (11748057_x_at) / Fold change /veh SOX15 (11748057_x_at) / RFU CD79A (11719716_a_at) / Fold change /veh CD79A (11719716_a_at) / RFU HIST1H1D (11736915_at) / Fold change /veh HIST1H1D (11736915_at) / RFU CASKIN2 (11723855_a_at) / Fold change /veh CASKIN2 (11723855_a_at) / RFU LOC730098 (11760151_x_at) / Fold change /veh LOC730098 (11760151_x_at) / RFU OR4N2 (11742367_at) / Fold change /veh OR4N2 (11742367_at) / RFU PRRT2 (11749266_a_at) / Fold change /veh PRRT2 (11749266_a_at) / RFU SNX32 (11753110_a_at) / Fold change /veh SNX32 (11753110_a_at) / RFU CDHR5 (11726645_a_at) / Fold change /veh CDHR5 (11726645_a_at) / RFU RCAN1 (11760418_a_at) / Fold change /veh RCAN1 (11760418_a_at) / RFU FAM167A (11723789_a_at) / Fold change /veh FAM167A (11723789_a_at) / RFU FAM26E (11764081_at) / Fold change /veh FAM26E (11764081_at) / RFU ISYNA1 (11749810_s_at) / Fold change /veh ISYNA1 (11749810_s_at) / RFU ACY1 (11761880_at) / Fold change /veh ACY1 (11761880_at) / RFU 11764098_at / Fold change /veh 11764098_at / RFU SAMD14 (11745864_x_at) / Fold change /veh SAMD14 (11745864_x_at) / RFU NPB (11741838_a_at) / Fold change /veh NPB (11741838_a_at) / RFU TMPRSS6 (11731388_a_at) / Fold change /veh TMPRSS6 (11731388_a_at) / RFU KRTAP10-2 (11738614_at) / Fold change /veh KRTAP10-2 (11738614_at) / RFU ARHGAP8 /// PRR5-ARHGAP8 (11727945_x_at) / Fold change /veh ARHGAP8 /// PRR5-ARHGAP8 (11727945_x_at) / RFU KRTAP5-7 /// NADSYN1 (11734609_at) / Fold change /veh KRTAP5-7 /// NADSYN1 (11734609_at) / RFU RASL12 (11751679_a_at) / Fold change /veh RASL12 (11751679_a_at) / RFU CDKN2B (11736163_a_at) / Fold change /veh CDKN2B (11736163_a_at) / RFU PRF1 (11729649_at) / Fold change /veh PRF1 (11729649_at) / RFU, ZNF638 /// ZNF638-IT1 / Fold change vs veh, ZNF638 /// ZNF638-IT1 / RFU, PANK3 / Fold change vs veh, PANK3 / RFU, SH3YL1 / Fold change vs veh, SH3YL1 / RFU, ZEB2 / Fold change vs veh, ZEB2 / RFU, NRIP1 / Fold change vs veh, NRIP1 / RFU, PTTG1IP / Fold change vs veh, PTTG1IP / RFU, CAPN2 / Fold change vs veh, CAPN2 / RFU, MED14 / Fold change vs veh, MED14 / RFU, SNORA58 / Fold change vs veh, SNORA58 / RFU, C1orf63 / Fold change vs veh, C1orf63 / RFU, LRRFIP1 / Fold change vs veh, LRRFIP1 / RFU, NDUFAF7 / Fold change vs veh, NDUFAF7 / RFU, SLC12A2 / Fold change vs veh, SLC12A2 / RFU, IBTK / Fold change vs veh, IBTK / RFU, ESF1 / Fold change vs veh, ESF1 / Fold change vs veh, TMEM50B / RFU, TAOK1 / Fold change vs veh, TAOK1 / RFU, ACBD3 / Fold change vs veh, ACBD3 / RFU, TMA16 / Fold change vs veh, TMA16 / RFU, RWDD3 / Fold change vs veh, RWDD3 / RFU, BCAT1 / Fold change vs veh, BCAT1 / RFU, EDEM3 / Fold change vs veh, EDEM3 / RFU, TMEM33 / Fold change vs veh, TMEM33 / RFU, WDR75 / Fold change vs veh, WDR75 / RFU, AHCTF1 / Fold change vs veh, AHCTF1 / RFU, TFRC / Fold change vs veh, TFRC / RFU, ZDHHC17 / Fold change vs veh, ZDHHC17 / RFU, NOM1 / Fold change vs veh, NOM1 / RFU, ARL8B / Fold change vs veh, ARL8B / RFU, ZBTB11 / Fold change vs veh, ZBTB11 / RFU, TAMM41 / Fold change vs veh, TAMM41 / RFU, KIAA1704 /// LOC100996395 / Fold change vs veh, KIAA1704 /// LOC100996395 / RFU, ING1 / Fold change vs veh, ING1 / RFU, TRMT61B / Fold change vs veh, TRMT61B / RFU, FUBP3 / Fold change vs veh, FUBP3 / RFU, TP53 / Fold change vs veh, TP53 / RFU, TNKS2 / Fold change vs veh, TNKS2 / RFU, ZFP14 / Fold change vs veh, ZFP14 / RFU, ACTR2 / Fold change vs veh, ACTR2 / RFU, PPP3R1 / Fold change vs veh, PPP3R1 / RFU, PIK3R1 / Fold change vs veh, PIK3R1 / RFU, HNRNPA1 / Fold change vs veh, HNRNPA1 / RFU, RNF170 / Fold change vs veh, RNF170 / RFU, ZNF28 / Fold change vs veh, ZNF28 / RFU, RNGTT / Fold change vs veh, RNGTT / RFU, OGT / Fold change vs veh, OGT / RFU, BRD1 / Fold change vs veh, BRD1 / RFU, MARS / Fold change vs veh, MARS / RFU, ZNF655 / Fold change vs veh, ZNF655 / RFU, FAHD1 / Fold change vs veh, FAHD1 / RFU, BDP1 / Fold change vs veh, BDP1 / RFU, LRRCC1 / Fold change vs veh, LRRCC1 / RFU, ARID1A / Fold change vs veh, ARID1A / RFU, ZNF146 / Fold change vs veh, ZNF146 / RFU, ZNF330 / Fold change vs veh, ZNF330 / RFU, GPN3 / Fold change vs veh, GPN3 / RFU, C9orf123 / Fold change vs veh, C9orf123 / RFU, N4BP2L2 / Fold change vs veh, N4BP2L2 / RFU, ARFIP1 / Fold change vs veh, ARFIP1 / RFU, FAM179B / Fold change vs veh, FAM179B / RFU, BCL10 / Fold change vs veh, BCL10 / RFU, UHRF1BP1L / Fold change vs veh, UHRF1BP1L / RFU, BET1 / Fold change vs veh, BET1 / RFU, CNOT2 / Fold change vs veh, CNOT2 / RFU, ZNF268 / Fold change vs veh, ZNF268 / Fold change vs veh, ZNF507 / RFU, DGCR2 / Fold change vs veh, DGCR2 / RFU, WDSUB1 / Fold change vs veh, WDSUB1 / Fold change vs veh, HSP90B1 /// MIR3652 / RFU, ADSS / Fold change vs veh, ADSS / RFU, GK / Fold change vs veh, GK / RFU, ZNF148 / Fold change vs veh, ZNF148 / RFU, TAF9 / Fold change vs veh, TAF9 / RFU, SLC1A5 / Fold change vs veh, SLC1A5 / RFU, SLMO2 / Fold change vs veh, SLMO2 / RFU, ABCC4 / Fold change vs veh, ABCC4 / RFU, LOC101060439 /// RAP1B / Fold change vs veh, LOC101060439 /// RAP1B / RFU, RFX7 / Fold change vs veh, RFX7 / RFU, GTPBP10 / Fold change vs veh, GTPBP10 / RFU, CNEP1R1 / Fold change vs veh, CNEP1R1 / RFU, BIVM-ERCC5 /// ERCC5 / Fold change vs veh, BIVM-ERCC5 /// ERCC5 / RFU, ILF3 / Fold change vs veh, ILF3 / RFU 11762660_at / Fold change /veh 11762660_at / RFU VCAN (11757783_s_at) / Fold change /veh VCAN (11757783_s_at) / RFU DDX43 (11728927_at) / Fold change /veh DDX43 (11728927_at) / RFU KRT8 (11758188_x_at) / Fold change /veh KRT8 (11758188_x_at) / RFU NKD1 (11759106_at) / Fold change /veh NKD1 (11759106_at) / RFU SRD5A1 (11742802_a_at) / Fold change /veh SRD5A1 (11742802_a_at) / RFU TPSAB1 /// TPSB2 (11721975_s_at) / Fold change /veh TPSAB1 /// TPSB2 (11721975_s_at) / RFU GSTM3 (11746129_a_at) / Fold change /veh GSTM3 (11746129_a_at) / RFU IL23R (11737362_x_at) / Fold change /veh IL23R (11737362_x_at) / RFU TMEM51 (11727254_a_at) / Fold change /veh TMEM51 (11727254_a_at) / RFU PIWIL2 (11732686_x_at) / Fold change /veh PIWIL2 (11732686_x_at) / RFU ORM1 (11744905_x_at) / Fold change /veh ORM1 (11744905_x_at) / RFU CCDC152 (11743942_at) / Fold change /veh CCDC152 (11743942_at) / RFU ECM1 (11717891_a_at) / Fold change /veh ECM1 (11717891_a_at) / RFU IL23R (11748794_a_at) / Fold change /veh IL23R (11748794_a_at) / RFU TNFAIP8L3 (11732012_x_at) / Fold change /veh TNFAIP8L3 (11732012_x_at) / RFU MBOAT4 (11741988_at) / Fold change /veh MBOAT4 (11741988_at) / RFU 11764193_at / Fold change /veh 11764193_at / RFU TMEM53 (11763286_at) / Fold change /veh TMEM53 (11763286_at) / RFU MAGEB2 (11727129_at) / Fold change /veh MAGEB2 (11727129_at) / RFU TMEM200A (11744735_a_at) / Fold change /veh TMEM200A (11744735_a_at) / RFU CCDC152 (11751479_a_at) / Fold change /veh CCDC152 (11751479_a_at) / RFU FAM211A (11726209_a_at) / Fold change /veh FAM211A (11726209_a_at) / RFU RGS16 (11746705_a_at) / Fold change /veh RGS16 (11746705_a_at) / RFU VCAN (11755009_s_at) / Fold change /veh VCAN (11755009_s_at) / RFU RHOB (11743442_s_at) / Fold change /veh RHOB (11743442_s_at) / RFU RGS16 (11720943_a_at) / Fold change /veh RGS16 (11720943_a_at) / RFU RGS16 (11720944_at) / Fold change /veh RGS16 (11720944_at) / RFU, VPS4B / Fold change vs veh, VPS4B / RFU, CREB1 / Fold change vs veh, CREB1 / RFU, DNAJC13 / Fold change vs veh, DNAJC13 / RFU, GNAQ / Fold change vs veh, GNAQ / RFU, CDK5R1 / Fold change vs veh, CDK5R1 / RFU, ZRANB3 / Fold change vs veh, ZRANB3 / RFU, CUL4A / Fold change vs veh, CUL4A / RFU, CCNY / Fold change vs veh, CCNY / RFU, UFL1 / Fold change vs veh, UFL1 / RFU, COG3 / Fold change vs veh, COG3 / RFU, DIAPH2 / Fold change vs veh, DIAPH2 / RFU, SKA2 / Fold change vs veh, SKA2 / RFU, AFF3 / Fold change vs veh, AFF3 / RFU, LMF1 / Fold change vs veh, LMF1 / RFU, IPO11 / Fold change vs veh, IPO11 / RFU, DFFB / Fold change vs veh, DFFB / RFU, FOXP1 / Fold change vs veh, FOXP1 / RFU, CARD8 / Fold change vs veh, CARD8 / RFU, STRN3 / Fold change vs veh, STRN3 / RFU, ADK / Fold change vs veh, ADK / RFU, RASSF2 / Fold change vs veh, RASSF2 / RFU, WIPF1 / Fold change vs veh, WIPF1 / RFU, LARP1B / Fold change vs veh, LARP1B / RFU, RASA1 / Fold change vs veh, RASA1 / RFU, RB1 / Fold change vs veh, RB1 / RFU, PPFIA1 / Fold change vs veh, PPFIA1 / RFU, MAT2A / Fold change vs veh, MAT2A / RFU, CCT5 / Fold change vs veh, CCT5 / RFU, WDR92 / Fold change vs veh, WDR92 / RFU, CUX1 / Fold change vs veh, CUX1 / RFU, TTC7A / Fold change vs veh, TTC7A / RFU, TMEM135 / Fold change vs veh, TMEM135 / RFU, DEPTOR / Fold change vs veh, DEPTOR / RFU, CPM / Fold change vs veh, CPM / RFU, DNAJB6 / Fold change vs veh, DNAJB6 / RFU, CACNA2D3 / Fold change vs veh, CACNA2D3 / RFU, DTX4 / Fold change vs veh, DTX4 / RFU, TFCP2 / Fold change vs veh, TFCP2 / RFU, GMCL1 /// GMCL1P1 / Fold change vs veh, GMCL1 /// GMCL1P1 / RFU, AEBP2 / Fold change vs veh, AEBP2 / RFU, SNHG1 /// SNORD22 /// SNORD25 /// SNORD26 /// SNORD27 /// SNORD28 /// SNORD29 /// SNORD31 / Fold change vs veh, SNHG1 /// SNORD22 /// SNORD25 /// SNORD26 /// SNORD27 /// SNORD28 /// SNORD29 /// SNORD31 / Fold change (Aza/veh), C12orf56 (ProbeSet 11735607_a_at) / Fold change (ACY-1035/veh), C12orf56 (ProbeSet 11735607_a_at) / Fold change (Aza/veh), FGFR1OP (ProbeSet 11751329_s_at) / Fold change (ACY-1035/veh), FGFR1OP (ProbeSet 11751329_s_at) / Fold change (Aza/veh), VPS36 (ProbeSet 11739960_a_at) / Fold change (ACY-1035/veh), VPS36 (ProbeSet 11739960_a_at) / RFU SYPL1 (11715823_x_at) / Fold change /veh SYPL1 (11715823_x_at) / RFU IGFBP7 (11715501_s_at) / Fold change /veh IGFBP7 (11715501_s_at) / RFU REEP3 (11722064_at) / Fold change /veh REEP3 (11722064_at) / RFU IGLL1 (11728026_x_at) / Fold change /veh IGLL1 (11728026_x_at): dose or concentration left out as unconfirmed
Conditions: ProbeSet 11753055_s_at; LIST B

## Nc1ncn([C@@H]2O[C@H](CO)[C@@H](O)[C@H]2O)c(=O)n1 [azacitidine]
  RFU, LOC101060439 /// RAP1B: 558.59 RFU
